Experimental data taken from US12234230B2, “Substituted benzyl-triazole compounds for Cbl-b inhibition, and further uses thereof” (Nurix Therapeutics, Inc., priority 2019, dated 2025).
Read-outs that look alike come from different tables or passages of the source.

What was measured:
Cbl-b = Cbl-b (Homo sapiens (Human), UniProt Q13191); experiment: Cbl-b displacement assay (Cbl-b inhibition assay), Biological Example 1; assay type: binding
Protocol: The ability of candidate compounds to displace a known inhibitor and thereby inhibit Cbl-b activity was measured by monitoring the interaction of Cbl-b with a fluorophore-labeled probe in the presence of the candidate compound.
Following the one hour incubation, the plates were read for TR-FRET signal at 520/620 nm using an Envision plate reader (Perkin Elmer).

[1] = tested on: primary human total T-cells; experiment: Primary human total T-cell activation (IL-2 secretion, CD25 surface staining), Biological Example 2; details: fold change over baseline; for CD25 staining CD3/CD28 0.3 μM / IL-2 secretion CD3/CD28 0.3 μM: 0.3 μM inhibitor; for CD25 staining CD3/CD28 0.3 μM / IL-2 secretion CD3/CD28 0.3 μM / IL-2 secretion CD3/CD28 1 μM / CD25 staining CD3/CD28 1 μM: anti-CD3 and anti-CD28 co-stimulation; for IL-2 secretion CD3/CD28 1 μM / CD25 staining CD3 1 μM / IL-2 secretion CD3 1 μM / CD25 staining CD3/CD28 1 μM: 1 μM inhibitor; for CD25 staining CD3 1 μM / IL-2 secretion CD3 1 μM / CD25 staining CD3 3 μM / IL-2 secretion CD3 3 μM: anti-CD3 stimulation alone; for CD25 staining CD3 3 μM / IL-2 secretion CD3 3 μM: 3 μM inhibitor
Protocol: Peripheral blood mononuclear cells (PBMC) were obtained either: 1) by using Ficoll-Paque™ (GE Healthcare) for separation of peripheral blood hematopoietic cells from buffy coats of healthy human donors; or 2) directly from LeukoPak donations. […] The cells were rested overnight at 37° C. 5% CO2. The Cbl-inhibitor was added to 1×10^5 cells per well and the plate was incubated for one hour at 37° C. in 5% CO2 at the concentrations indicated (Table 3) with a final DMSO concentration of <0.1%. For samples stimulated with anti-CD3 antibody and anti-CD28 antibody (anti-CD3/anti-CD28), the Cbl-b inhibitor concentrations tested were 1 μM, and 0.3 μM. For samples stimulated with anti-CD3 antibody alone (anti-CD3), the Cbl-b inhibitor concentrations tested were 3 μM, and 1 μM. […] To prepare plates with plate bound anti-CD3 antibody (OKT3), 96-well round bottom tissue culture plates were coated with 100 μL of anti-CD3 antibody (OKT3) at 10 μg/mL for 4 hours at 37° C. 5% CO2 in phosphate buffered saline (PBS). […] Cells were stimulated for 48 hours prior to harvesting the cell free supernatant and staining the cell population for surface marker assessment by flow cytometry. Supernatants were analyzed for cytokine secretion, including IL-2 by ELISA (R&D Systems, Peprotech or Life Technologies) or Luminex multiplex kits (Procarta Life Technologies) following the manufacturer's protocol. Cells were stained with anti-CD25 antibody (BD Biosciences) to assess levels of surface marker of activation.
Readouts were reported as fold change over baseline. Baseline for this study was the measurement obtained from total human T-cells stimulated with anti-CD3 antibody and with soluble anti-CD28 antibody, wherein the cells were not incubated with a Cbl-b inhibitor (Table 3).

[2] = 0.125 nM Cbl-b final concentration (Low), read-out: Cbl-b activity IC50 (Low)
[3] = 0.5 nM Cbl-b final concentration (High), read-out: Cbl-b activity IC50 (High)

Chain of Cbl-b (Q13191 36-427): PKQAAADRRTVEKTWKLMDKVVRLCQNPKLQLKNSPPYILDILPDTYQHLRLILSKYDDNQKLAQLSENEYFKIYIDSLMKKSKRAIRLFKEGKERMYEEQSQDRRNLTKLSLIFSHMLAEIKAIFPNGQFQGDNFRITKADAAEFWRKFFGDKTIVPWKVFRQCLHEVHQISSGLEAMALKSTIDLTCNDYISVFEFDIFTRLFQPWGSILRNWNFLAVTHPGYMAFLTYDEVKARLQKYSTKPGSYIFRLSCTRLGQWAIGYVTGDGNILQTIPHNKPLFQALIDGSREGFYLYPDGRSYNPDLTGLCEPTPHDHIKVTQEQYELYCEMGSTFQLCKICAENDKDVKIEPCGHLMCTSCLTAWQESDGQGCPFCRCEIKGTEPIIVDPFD

SMILES	IC50 (Cbl-b; [2])	CD25 staining CD3/CD28 0.3 μM [1]	IL-2 secretion CD3/CD28 0.3 μM [1]	IL-2 secretion CD3/CD28 1 μM [1]	CD25 staining CD3 1 μM [1]	IL-2 secretion CD3 1 μM [1]	CD25 staining CD3 3 μM [1]	IL-2 secretion CD3 3 μM [1]	IC50 (Cbl-b; [3])	CD25 staining CD3/CD28 1 μM [1]	IC50 (Cbl-b; read-out: IC50 values in the Cbl-b inhibition assay of Biological Example 1)
C[C@@H]1CN(C(C)(C)c2cc3c(c(C(F)(F)F)c2)CN(c2cccc(C4(c5nncn5C)CC5(CC5)C4)c2)C3=O)CCO1 [Compound 45, (R)-2-(3-(5-(4-methyl-4H-1,2,4-triazol-3-yl)spiro[2.3]hexan-5-yl)phenyl)-6-(2-(2-methylmorpholino)propan-2-yl)-4-(trifluoromethyl)isoindolin-1-one]	< 5 nM	B (B indicates 1.24-1.39 fold)	B (B indicates 20-35 fold)	B (B indicates 20-35 fold)	A (A indicates >2.5 fold)	A (A indicates >1.1 fold)	A (A indicates >2.5 fold)	A (A indicates >1.1 fold)			
Cc1cc(C(=O)Nc2cccc([C@H](c3nncn3C)C3CCC3)c2)nc(C2CC2)n1 [Compound 13, (R)—N-(3-(cyclobutyl(4-methyl-4H-1,2,4-triazol-3-yl)methyl)phenyl)-2-cyclopropyl-6-methylpyrimidine-4-carboxamide]			C (C indicates <20 fold)	C (C indicates <20 fold)	C (C indicates <1.5 fold)		C (C indicates <1.5 fold)		> 100 nM		
C[C@H]1CCCN(Cc2cc3c(c(C(F)(F)F)c2)CN(c2cccc([C@]4(c5nncn5C)C[C@@H](CC#N)C4)c2)C3=O)C1 [Compound 48, 2-((1R,3s)-3-(4-methyl-4H-1,2,4-triazol-3-yl)-3-(3-(6-(((S)-3-methylpiperidin-1-yl)methyl)-1-oxo-4-(trifluoromethyl)isoindolin-2-yl)phenyl)cyclobutyl)acetonitrile]	< 5 nM		B (B indicates 20-35 fold)	A (A indicates >35 fold)	A (A indicates >2.5 fold)	A (A indicates >1.1 fold)	B (B indicates 1.5-2.5 fold)	B (B indicates 0.70-1.1 fold)			
C[C@H]1CCCN(Cc2cc3c(c(C(F)(F)F)c2)CN(c2cccc(C4(c5nncn5C)COC4)c2)C3=O)C1 [Compound 46, 6-[[(3S)-3-methyl-1-piperidyl]methyl]-2-[3-[3-(4-methyl-1,2,4-triazol-3-yl)oxetan-3-yl]phenyl]-4-(trifluoromethyl)isoindolin-1-one]	< 5 nM	B (B indicates 1.24-1.39 fold)	A (A indicates >35 fold)	A (A indicates >35 fold)	B (B indicates 1.5-2.5 fold)	A (A indicates >1.1 fold)	A (A indicates >2.5 fold)	A (A indicates >1.1 fold)		B (B indicates 1.24-1.39 fold)	
C[C@@H]1CN(Cc2cc3c(c(C4CC4)n2)CN(c2cccc([C@]4(c5nncn5C)C[C@@H](C)C4)c2)C3=O)CCO1 [Compound 29, 4-cyclopropyl-2-(3-((1s,3S)-3-methyl-1-(4-methyl-4H-1,2,4-triazol-3-yl)cyclobutyl)phenyl)-6-(((R)-2-methylmorpholino)methyl)-2,3-dihydro-1H-pyrrolo[3,4-c]pyridin-1-one]	5 to 20 nM	B (B indicates 1.24-1.39 fold)	C (C indicates <20 fold)	B (B indicates 20-35 fold)	A (A indicates >2.5 fold)	A (A indicates >1.1 fold)	B (B indicates 1.5-2.5 fold)	B (B indicates 0.70-1.1 fold)		B (B indicates 1.24-1.39 fold)	
Cn1cnnc1C(C)(c1cccc(N2Cc3c(cccc3C(F)(F)F)C2=O)c1)C1CCC1 (stereo not drawn) [Compound 18, 2-(3-(1-cyclobutyl-1-(4-methyl-4H-1,2,4-triazol-3-yl)ethyl)phenyl)-4-(trifluoromethyl)isoindolin-1-one]	> 100 nM	B (B indicates 1.24-1.39 fold)	C (C indicates <20 fold)	C (C indicates <20 fold)	B (B indicates 1.5-2.5 fold)	C (C indicates <0.70 fold)	A (A indicates >2.5 fold)	C (C indicates <0.70 fold)		B (B indicates 1.24-1.39 fold)	> 100 nM
Cn1cnnc1C1(c2cccc(N3Cc4c(cccc4C(F)(F)F)C3=O)c2)CCCC1 [Compound 11, 2-(3-(1-(4-methyl-4H-1,2,4-triazol-3-yl)cyclopentyl)phenyl)-4-(trifluoromethyl)isoindolin-1-one]			C (C indicates <20 fold)	C (C indicates <20 fold)	C (C indicates <1.5 fold)		C (C indicates <1.5 fold)		> 100 nM		
CO[C@H]1C[C@](c2cccc(N3Cc4c(cc(CN5CCC[C@H](C)C5)cc4C(F)(F)F)C3=O)c2)(c2nncn2C)C1 [Compound 37, 2-(3-((1r,3S)-3-methoxy-1-(4-methyl-4H-1,2,4-triazol-3-yl)cyclobutyl)phenyl)-6-(((S)-3-methylpiperidin-1-yl)methyl)-4-(trifluoromethyl)isoindolin-1-one]	< 5 nM	B (B indicates 1.24-1.39 fold)	B (B indicates 20-35 fold)	B (B indicates 20-35 fold)	A (A indicates >2.5 fold)	A (A indicates >1.1 fold)	A (A indicates >2.5 fold)	B (B indicates 0.70-1.1 fold)			
C[C@@H]1CN(Cc2cc3c(c(C(F)(F)F)c2)CN(c2cccc(C4(c5nncn5C)CC5(CC5)C4)c2)C3=O)CCO1 [Compound 43, (R)-2-(3-(5-(4-methyl-4H-1,2,4-triazol-3-yl)spiro[2.3]hexan-5-yl)phenyl)-6-((2-methylmorpholino)methyl)-4-(trifluoromethyl)isoindolin-1-one]	< 5 nM	B (B indicates 1.24-1.39 fold)	B (B indicates 20-35 fold)	A (A indicates >35 fold)	A (A indicates >2.5 fold)	A (A indicates >1.1 fold)	A (A indicates >2.5 fold)	A (A indicates >1.1 fold)		B (B indicates 1.24-1.39 fold)	
C[C@H]1CCCN(Cc2cc3c(c(C(F)(F)F)c2)CN(c2cccc([C@]4(c5nncn5C)C[C@H](O)C4)c2)C3=O)C1 [Compound 35, 2-(3-((1r,3S)-3-hydroxy-1-(4-methyl-4H-1,2,4-triazol-3-yl)cyclobutyl)phenyl)-6-(((S)-3-methylpiperidin-1-yl)methyl)-4-(trifluoromethyl)isoindolin-1-one]	< 5 nM	B (B indicates 1.24-1.39 fold)	B (B indicates 20-35 fold)	B (B indicates 20-35 fold)	A (A indicates >2.5 fold)	B (B indicates 0.70-1.1 fold)	A (A indicates >2.5 fold)	B (B indicates 0.70-1.1 fold)		B (B indicates 1.24-1.39 fold)	
C[C@@H]1CN(Cc2cc3c(c(C(F)(F)F)c2)CN(c2cccc(C4(c5nncn5C)CC(F)(F)C4)c2)C3=O)CCO1 [Compound 53, 2-{3-[3,3-difluoro-1-(4-methyl-1,2,4-triazol-3-yl)cyclobutyl]phenyl}-6-{[(2R)-2-methylmorpholin-4-yl]methyl}-4-(trifluoromethyl)-3H-isoindol-1-one]	< 5 nM		A (A indicates >35 fold)	A (A indicates >35 fold)	A (A indicates >2.5 fold)	A (A indicates >1.1 fold)	A (A indicates >2.5 fold)	A (A indicates >1.1 fold)			
C[C@@H]1CN(Cc2cc3c(c(C(F)(F)F)c2)CN(c2cccc([C@]4(c5nncn5C)C[C@H](C#N)C4)c2)C3=O)CCC1(F)F [Compound 40, (1R,3r)-3-(3-(6-(((R)-4,4-difluoro-3-methylpiperidin-1-yl)methyl)-1-oxo-4-(trifluoromethyl)isoindolin-2-yl)phenyl)-3-(4-methyl-4H-1,2,4-triazol-3-yl)cyclobutane-1-carbonitrile]	< 5 nM		B (B indicates 20-35 fold)	A (A indicates >35 fold)	A (A indicates >2.5 fold)	B (B indicates 0.70-1.1 fold)	A (A indicates >2.5 fold)	B (B indicates 0.70-1.1 fold)			
